# Patent publication EP0367974A1, “Cis-complexes with a 1,3-diaminopropane derivative as a ligand, methods for their preparation and pharmaceutical agents containing such complexes” (BEHRINGWERKE Aktiengesellschaft, priority 1988, dated 1990)
# Assays:
# [1] = tested on: L1210-Leukämiezellen; test: Colony formation of L1210 leukaemia cells in soft agar; assay type: cell-based, Maus; conditions: colony number vs untreated control, 7 days at 37° C; 1 h incubation or continuous exposure not specified
# Excerpt: Die Bestimmung der zytostatischen Wirksamkeit der hier beschriebenen Verbindungen erfolgte an L1210-Leukämiezellen der Maus. Im einzelnen wurden folgende Testsysteme verwendet:
# Diese Methode dient zum Nachweis eines Einflusses der Testsubstanzen auf das Wachstumsverhalten der Zellen über mehrere Generationen (bei einer Zellzykluszeit von 10 - 12 Stunden werden in der Testzeit von 7 Tagen etwa 14 aufeinanderfolgende Generationen beobachtet). Zytostatisch wirksame Substanzen bewirken in diesem Test eine Reduktion der zu beobachtenden Koloniezahl gegenüber einer unbehandelten Kontrolle. Im einzelnen wird der Test wie folgt durchgeführt: Leukämiezellen werden mit unterschiedlichen Konzentrationen von Testsubstanz 1 Stunde bei 37° C inkubiert.
# Anschließend werden die Zellen zweimal mit McCoy5A-Medium gewaschen und schließlich in Petrischalen nach Zusatz von 0.3 % Agar ausgegossen (500 Zellen/Platte). Kontrollen werden lediglich mit frischem Medium inkubiert. Anstelle der einstündigen Inkubation werden in manchen Fällen unterschiedliche Konzentrationen und Testsubstanz der oberen Agarschicht zugemischt, um so eine kontinuierliche Exposition der Zellen über die gesamte Inkubationszeit zu erreichen. Nach Erstarren des Agars werden die Platten im Brutschrank 7 Tage bei 37° C inkubiert ( 5 Vol-% CO₂, 95 % relative Luftfeuch tigkeit). Anschließend wird die Anzahl der entstandenen Kolonien mit einem Durchmesser von mehr als 60 µ gezählt. Die Ergebnisse werden angegeben als Koloniezahl in behandelten Agarplatten, in Prozent der unbehandelten Kontrolle. Aus der so erhalten Dosiswirkungskurve wird die IC₅₀ als Maß für die Wirksamkeit der Substanz ermittelt.
# [2] = tested on: L1210 Leukämie der Maus; test: In vivo efficacy of the platinum complexes against L1210 leukaemia of the mouse; design: opt. Dose: unit not given here; conditions: for opt. Dose: dose with the greatest antitumoural effect, schedule 3 x i.p./i.p.; for T/C % L1210: treatment schedule 3 x i.p./i.p., mean survival time vs control at optimal dose; for LTS (Long Term Survivor): animals alive on day 60 (cured) per group of 6, at optimal dose, 3 x i.p./i.p.
# Protocol: Ascitesflüssigkeit wird unter sterilen Bedingungen DBA2 Mäusen (weiblich, 18 - 20 g) 7 Tage nach Implantation entnommen. Der Ascites wird dreimal mit PBS gewaschen, gezählt und auf eine Zellzahl von 10⁶ in 0.2 ml PBS eingestellt. 10⁶ Zellen, suspendiert in 0.2 ml PBS, werden anschlie-ßend DBF1 Mäusen (weiblich, 18 - 20 g) intraperitoneal injiziert. 6 Tiere pro Gruppe werden für jede Substanz konzentration bzw. als Kontrolle eingesetzt.
# • a) Die Tiere werden am Tag 1 und 5 nach Injektion der Testsubstanz gewogen.
# Die Dosis, die den größten antitumoralen Effekt (optimale Dosierung) sowie jeweils eine Dosisstufe oberhalb und unterhalb dieser Dosis wurden angegeben. Tiere, die am Tag 60 des Experimentes noch leben, werden als geheilt zusätzlich getrennt aufgeführt.
# [3] = tested on: NMRI-Mäusen; test: Acute toxicity in mice (LD50, Litchfield-Wilcoxon); assay type: in vivo, Maus; conditions: 3 x i.p.; survivors counted day 14 after last injection
# Protocol: Zur Ermittlung der akuten Toxizität werden NMRI-Mäusen am Tag 0 unterschiedliche Dosen der Testsubstanz gelöst in 0.5 ml 5 %iger Glucose-Lösung, intraperitoneal injiziert. Kontrollgruppen erhalten lediglich 0.5 ml 5 %ige Glucose-Lösung. Pro Konzentration der Testsubstanz werden 5 Mäuse verwendet. Am Tag 14 nach der letzten Injektion wird die Zahl der überlebenden Mäuse ermittelt und daraus nach der Lichtfield Wilcoxon Methode die LD5, LD50 und LD95 ermittelt.
SMILES,IC₅₀ [1],opt. Dose [2],T/C % L1210 [2],LD₅₀ [3],LTS (Long Term Survivor) [2]
"N.N.[Cl][Pt][Cl] [Cisplatin, reference compound]",0.04 µg/mL,4,157%,–,–
"CCC(CN)(CN)COC.O=C1[O][Pt][O]C(=O)C12CC2 [Verbindung 1, 1,3-Diamino-2-ethyl-2-methoxymethyl-propan-N,N′-platin(II)-O,O′-cyclopropan-1,1-dicarboxylat]",5.0 µg/mL,50,450%,90 to 120 mg/kg,6/6
"COCC(C)(CN)CN.O=C([O-])C1(C(=O)[O-])CC1.[Pt+2] [Verbindung 2, 1,3-Diamino-2-methoxymethyl-2-methyl-propan-N,N′-platin(II)-O,O′-cyclopropan-1,1-dicarboxylat]",4.2 µg/mL,–,–,–,–
"CCC(CN)(CN)COC.COC1C(=O)[O][Pt][O]C1=O [Verbindung 9, 1,3-Diamino-2-ethyl-2-methoxymethyl-propan-N,N′-platin(II)-O,O′-2-methoxymalonat]",2.35 µg/mL,16,306%,60 mg/kg,3/6
"CCC(CN)(CN)COC.O=C1C[O][Pt][O]1 [Verbindung 16, 1,3-Diamino-2-ethyl-2-methoxymethyl-propan-N,N′-platin(II)-O,O′-2-hydroxy-acetat]",1.2 µg/mL,15.8,361%,–,4/6
"COCC(C)(CN)CN.O=C1C[O][Pt][O]1 [Verbindung 17, 1,3-Diamino-2-methoxymethyl-2-methyl-propan-N,N′-platin(II)-O,O′-2-hydroxy-acetat]",1.8 µg/mL,9.5,225%,–,1/6
"CCC(CN)(CN)COC.CCC1(C)[O][Pt][O]C1=O [Verbindung 22, 1,3-Diamino-2-ethyl-2-methoxymethyl-propan-N,N′-platin(II)-O,O′-(2-hydroxy-2-methyl)-butyrat]",2.9 µg/mL,–,–,90 to 180 mg/kg,–
